# Measured values as given in patent US20250129096A1, “ANNULATED 2-AMINO-3-CYANO THIOPHENES AND DERIVATIVES FOR THE TREATMENT OF CANCER” (Boehringer Ingelheim Int'l GmbH Corp., priority 2021, published 2025).
# Tested on: NCI-H358 cells (NSCLC, G12C)
# Assay: NCI-H358 CTG proliferation assay (120 h), assay 1
# Assay type: cell-based
# Conditions: Homo sapiens, CellTiter-Glo, 96 well, 2000 cells per well
# Method: NCI-1H358 cells (ATCC No. CRL-5807) are dispensed into white bottom opaque 96 well plates (Perkin Elmer cat no. 5680) at a density of 2000 cells per well in 100 μL RPM 1-1640 ATCC-Formulation (Gibco #A10491)+10% FCS (fetal calf serum) (assay 1) or into black 384-well plates, flat and clear bottom (Greiner, PNr. 781091) at a density of 200 cells per well in 60 μl RPMI-1640 ATCC-Formulation (Gibco #A10491)+10% FCS (fetal calf serum) (assay 2). […] Compounds (10 mM stock in DMSO) are added at logarithmic dose series using the HP Digital Dispenser D300 (Tecan) (assay 1) or the ECHO acoustic liquid handler system (Beckman Coulter) (assay 2), normalizing for added DMSO and including DMSO controls. For the TO time point measurement, untreated cells are analyzed at the time of compound addition. Plates are incubated for 120 h, and cell viability is measured using CellTiter-Glo luminescent cell viability reagent (Promega product code G7570). Viability (stated as percent of control) is defined as relative luminescence units RLU of each well divided by the RLU of cells in DMSO controls. IC50 values are determined from viability measurements by non-linear regression using a four-parameter model.
smiles,measurement,value
C[C@H]1CNCCN1c1nccc(-c2noc3c2CCC[C@@]32CCCc3sc(N)c(C#N)c32)n1 [IIf-1],IC50,831 nM
